Experimental data: the NIST ThermoML archive (doi:10.1021/je900182h)
Several values for one entry are separate records, joined by “and”; a condition that tells them apart may be missing. Equal values may be shown once. ± gives the expanded uncertainty stated by the source.

Conditions: Crystal

SMILES: [Br][Ga]([Br])[Br] [gallium bromide]
- vapor or sublimation pressure (300 K): 7.08e-05 ± 2.1e-05 kPa
- vapor or sublimation pressure (302.5 K): 6.31e-05 ± 1.9e-05 kPa and 9.55e-05 ± 2.9e-05 kPa
- vapor or sublimation pressure (303 K): 4.79e-05 ± 1.4e-05 kPa
- vapor or sublimation pressure (304 K): 7.24e-05 ± 2.2e-05 kPa
- vapor or sublimation pressure (304.5 K): 8.51e-05 ± 2.6e-05 kPa
- vapor or sublimation pressure (305 K): 7.24e-05 ± 2.2e-05 kPa
- vapor or sublimation pressure (306.5 K): 9.77e-05 ± 2.9e-05 kPa
- vapor or sublimation pressure (307 K): 0.000141 ± 4.2e-05 kPa and 9.77e-05 ± 2.9e-05 kPa
- vapor or sublimation pressure (307.5 K): 0.000126 ± 3.8e-05 kPa and 9.55e-05 ± 2.9e-05 kPa
- vapor or sublimation pressure (308 K): 0.000126 ± 3.8e-05 kPa
- vapor or sublimation pressure (309.5 K): 0.000145 ± 4.4e-05 kPa
- vapor or sublimation pressure (310 K): 0.00017 ± 5.1e-05 kPa and 0.000123 ± 3.7e-05 kPa
- vapor or sublimation pressure (310.5 K): 0.000141 ± 4.2e-05 kPa
- vapor or sublimation pressure (311 K): 0.00024 ± 7.2e-05 kPa
- vapor or sublimation pressure (311.7 K): 0.000263 ± 7.9e-05 kPa
- vapor or sublimation pressure (312 K): 0.000214 ± 6.4e-05 kPa
- vapor or sublimation pressure (312.5 K): 0.00017 ± 5.1e-05 kPa
- vapor or sublimation pressure (313 K): 0.000257 ± 7.7e-05 kPa [middle of 4 runs]
- vapor or sublimation pressure (313.5 K): 0.000219 ± 6.6e-05 kPa
- vapor or sublimation pressure (314 K): 0.00038 ± 0.00011 kPa
- vapor or sublimation pressure (314.5 K): 0.000339 ± 0.0001 kPa and 0.000219 ± 6.6e-05 kPa
- vapor or sublimation pressure (315 K): 0.000339 ± 0.0001 kPa [middle of 4 runs]
- vapor or sublimation pressure (315.5 K): 0.000263 ± 7.9e-05 kPa
- vapor or sublimation pressure (316 K): 0.00038 ± 0.00011 kPa and 0.000245 ± 7.4e-05 kPa
- vapor or sublimation pressure (316.5 K): 0.000288 ± 8.6e-05 kPa
- vapor or sublimation pressure (317 K): 0.000331 ± 9.9e-05 kPa and 0.000295 ± 8.9e-05 kPa
- vapor or sublimation pressure (317.5 K): 0.000525 ± 0.00016 kPa and 0.000339 ± 0.0001 kPa
- vapor or sublimation pressure (318 K): 0.00055 ± 0.00016 kPa
- vapor or sublimation pressure (318.5 K): 0.000513 ± 0.00015 kPa and 0.000339 ± 0.0001 kPa
- vapor or sublimation pressure (319.5 K): 0.000589 ± 0.00018 kPa [middle of 4 runs]
- vapor or sublimation pressure (320 K): 0.000617 ± 0.00018 kPa and 0.000363 ± 0.00011 kPa
- vapor or sublimation pressure (321 K): 0.000851 ± 0.00026 kPa and 0.000759 ± 0.00023 kPa
- vapor or sublimation pressure (321.5 K): 0.000575 ± 0.00017 kPa
- vapor or sublimation pressure (322 K): 0.000759 ± 0.00023 kPa and 0.000912 ± 0.00027 kPa and 0.000525 ± 0.00016 kPa
- vapor or sublimation pressure (322.5 K): 0.000891 ± 0.00027 kPa and 0.000589 ± 0.00018 kPa
- vapor or sublimation pressure (323 K): 0.0011 ± 0.00033 kPa and 0.000977 ± 0.00029 kPa and 0.000661 ± 0.0002 kPa
- vapor or sublimation pressure (323.5 K): 0.000724 ± 0.00022 kPa
- vapor or sublimation pressure (324 K): 0.0011 ± 0.00033 kPa [middle of 4 runs]
- vapor or sublimation pressure (324.5 K): 0.000708 ± 0.00021 kPa
- vapor or sublimation pressure (325 K): 0.00141 ± 0.00042 kPa and 0.000724 ± 0.00022 kPa
- vapor or sublimation pressure (325.5 K): 0.000813 ± 0.00024 kPa
- vapor or sublimation pressure (326 K): 0.00141 ± 0.00042 kPa and 0.000832 ± 0.00025 kPa
- vapor or sublimation pressure (326.5 K): 0.000955 ± 0.00029 kPa and 0.000832 ± 0.00025 kPa
- vapor or sublimation pressure (327 K): 0.00117 ± 0.00035 kPa and 0.000977 ± 0.00029 kPa
- vapor or sublimation pressure (327.5 K): 0.00151 ± 0.00045 kPa [middle of 4 runs]
- vapor or sublimation pressure (328 K): 0.00191 ± 0.00057 kPa and 0.00105 ± 0.00032 kPa
- vapor or sublimation pressure (328.5 K): 0.00178 ± 0.00053 kPa and 0.000977 ± 0.00029 kPa
- vapor or sublimation pressure (329.5 K): 0.00148 ± 0.00044 kPa and 0.00123 ± 0.00037 kPa
- vapor or sublimation pressure (330 K): 0.00251 ± 0.00075 kPa and 0.00141 ± 0.00042 kPa and 0.00158 ± 0.00047 kPa
- vapor or sublimation pressure (331 K): 0.00263 ± 0.00079 kPa and 0.00257 ± 0.00077 kPa
- vapor or sublimation pressure (331.5 K): 0.00204 ± 0.00061 kPa
- vapor or sublimation pressure (332 K): 0.00324 ± 0.00097 kPa and 0.00191 ± 0.00057 kPa
- vapor or sublimation pressure (332.5 K): 0.00174 ± 0.00052 kPa
- vapor or sublimation pressure (333 K): 0.00214 ± 0.00064 kPa [middle of 4 runs]
- vapor or sublimation pressure (333.5 K): 0.00331 ± 0.00099 kPa and 0.00204 ± 0.00061 kPa
- vapor or sublimation pressure (334 K): 0.00398 ± 0.0012 kPa and 0.00234 ± 0.0007 kPa
- vapor or sublimation pressure (335 K): 0.00437 ± 0.0013 kPa and 0.00417 ± 0.0013 kPa and 0.00191 ± 0.00057 kPa
- vapor or sublimation pressure (335.5 K): 0.00263 ± 0.00079 kPa
- vapor or sublimation pressure (336 K): 0.00324 ± 0.00097 kPa [middle of 4 runs]
- vapor or sublimation pressure (337 K): 0.00339 ± 0.001 kPa
- vapor or sublimation pressure (338 K): 0.0055 ± 0.0016 kPa and 0.00363 ± 0.0011 kPa and 0.00309 ± 0.00093 kPa
- vapor or sublimation pressure (339.5 K): 0.00525 ± 0.0016 kPa
- vapor or sublimation pressure (340 K): 0.00407 ± 0.0012 kPa and 0.00427 ± 0.0013 kPa and 0.00437 ± 0.0013 kPa
- vapor or sublimation pressure (340.5 K): 0.00437 ± 0.0013 kPa
- vapor or sublimation pressure (341 K): 0.00759 ± 0.0023 kPa and 0.00427 ± 0.0013 kPa
- vapor or sublimation pressure (342 K): 0.00501 ± 0.0015 kPa
- vapor or sublimation pressure (343 K): 0.00759 ± 0.0023 kPa and 0.00589 ± 0.0018 kPa
- vapor or sublimation pressure (343.5 K): 0.00603 ± 0.0018 kPa
- vapor or sublimation pressure (344 K): 0.00617 ± 0.0019 kPa
- vapor or sublimation pressure (344.5 K): 0.00708 ± 0.0021 kPa
- vapor or sublimation pressure (345 K): 0.00661 ± 0.002 kPa and 0.00676 ± 0.002 kPa
- vapor or sublimation pressure (346 K): 0.00794 ± 0.0024 kPa [middle of 4 runs]
- vapor or sublimation pressure (346.5 K): 0.00871 ± 0.0026 kPa
- vapor or sublimation pressure (347 K): 0.0135 ± 0.0041 kPa
- vapor or sublimation pressure (348 K): 0.00871 ± 0.0026 kPa and 0.00955 ± 0.0029 kPa
- vapor or sublimation pressure (349 K): 0.01 ± 0.003 kPa and 0.012 ± 0.0036 kPa and 0.0105 ± 0.0032 kPa
- vapor or sublimation pressure (350.5 K): 0.0115 ± 0.0035 kPa
- vapor or sublimation pressure (351 K): 0.0186 ± 0.0056 kPa and 0.0117 ± 0.0035 kPa
- vapor or sublimation pressure (352 K): 0.0145 ± 0.0044 kPa
- vapor or sublimation pressure (354.5 K): 0.0174 ± 0.0052 kPa
- vapor or sublimation pressure (357 K): 0.0195 ± 0.0059 kPa
